System: E2 aptamer (DNA, aptamer) AAGGGATGCCGTTTGGGCCCAAGTTCGGCATAGTG
Experiment: graphene field-effect transistor
Details: 0.05 × PBS; pH 7.4, 5% DMSO, no interference; 4.67 nM with pH variation 6.5-8.0

KD: 4.21 nM
Structure (SMILES): C[C@]12CC[C@@H]3c4ccc(O)cc4CC[C@H]3[C@@H]1CC[C@@H]2O
